Reference: patent US11091478B2 (Fochon Pharmaceuticals, Ltd., priority 2017, dated 2021)
Read-outs that look alike come from different tables or passages of the source.

Columns and labels:
DOHH2 cells = experiment: Cell proliferation assay (MTS), DOHH2 cells, 120 h; assay type: cell-based
Summary of the method: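 Treatment lasts 72 h for RS4;11 and 120 h for DOHH2 cells seeded at 5000 per well in serum-containing RPMI-1640. A 2 h MTS step, halted with 10% SDS, precedes dual-wavelength absorbance reading and IC50 fitting.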

RS4;11 cells = experiment: Cell proliferation assay (MTS), RS4;11 cells, 72 h; assay type: cell-based
Text: Cell Proliferation Assays
MTS testing kit was purchased from Promega. The RPMI-1640, Fetal bovine serum and Penicillin-Streptomycin were purchased from Gibco. Dimethyl sulfoxide (DMSO) was purchased from Sigma.
To investigate whether a compound is able to inhibit the activity of BCL-2 in cells, a mechanism-based assay using DOHH2 (DSMZ No.® ACC 47) and RS4;11 (ATCC® CRL-1873™) cell was developed. In this assay, inhibition of Bcl-2 was detected by the inhibition of DOHH2 cells proliferation. DOHH2 cells were cultured in culture flasks to 40-80% confluence in RPMI-1640 plus 10% fetal bovine serum. Cells were collected and plated onto 96-well plates at desired cell density (5000 cells/well). Plates were incubated overnight at 37° C., with 5% CO2 to adhere. Compounds were added to the plates, and the final compound concentrations were 10000, 3333, 1111, […], 124, 41, 14, 4.6 and 1.5 nM. Plates plated with DOHH2 or RS4;11 cells were placed at 37° C., with 5% CO2 for 120 h (DOHH2) or 72 h (RS4;11) respectively. 20 μl MTS/100 μl medium mixture solution were added to each well and incubate the plates for exactly 2 hours. The reaction was stopped by adding 25 μl 10% SDS per well. Measure absorbance at 490 nm and 650 nm (reference wavelength). IC50 was calculated using GraphPad Prism 5.0.
Select compounds prepared as described above were assayed according to the biological procedures described herein.

Row | Structure (SMILES) | IC50 (DOHH2 cells; Homo sapiens, DOHH-2, 120 h) [nM] | IC50 (DOHH2 cells) [nM] | also measured
1 | CC1(C)CCC(CN2CCN(c3ccc(C(=O)NS(=O)(=O)c4cc5c(c([N+](=O)[O-])c4)N[C@H](C4CCC(C)(O)CC4)CO5)c(Oc4cnc5[nH]ccc5c4)c3)CC2)=C(c2ccc(Cl)cc2)C1 (single isomer, unassigned) [Example 2-3A] | 16 | – | IC50 (RS4;11 cells; Homo sapiens, RS4-11, 72 h): 1 nM
2 | CC1(C)CCC(CN2CCN(c3ccc(C(=O)NS(=O)(=O)c4cc5c(c([N+](=O)[O-])c4)N[C@H](C4CCC(C)(O)CC4)CO5)c(Oc4cnc5[nH]ccc5c4)c3)CC2)=C(c2ccc(Cl)cc2)C1 (single isomer, unassigned) [Example 2-3B] | – | – | IC50 (DOHH2 cells; Homo sapiens, DOHH-2): 33 nM; IC50 (RS4;11 cells; Homo sapiens): 8 nM
3 | CC1(C)CCC(CN2CCN(c3ccc(C(=O)NS(=O)(=O)c4cc5c(c([N+](=O)[O-])c4)N[C@H](CC4CCC(O)CC4)CO5)c(Oc4cnc5[nH]ccc5c4)c3)CC2)=C(c2ccc(Cl)cc2)C1 (single isomer, unassigned) [Example 2-239A] | – | 5 | IC50 (RS4;11 cells; Homo sapiens, RS4-11, 72 h): 1 nM
4 | CC1(C)CCC(CN2CCN(c3ccc(C(=O)NS(=O)(=O)c4cc5c(c([N+](=O)[O-])c4)N[C@H](CC4CCC(O)CC4)CO5)c(Oc4cnc5[nH]ccc5c4)c3)CC2)=C(c2ccc(Cl)cc2)C1 (single isomer, unassigned) [Example 2-239B] | – | 1 | IC50 (RS4;11 cells): 1 nM
5 | CC1(C)CCC(CN2CCN(c3ccc(C(=O)NS(=O)(=O)c4cc5c(c([N+](=O)[O-])c4)N[C@H](C4CCC(O)CC4)CO5)c(Oc4cnc5[nH]ccc5c4)c3)CC2)=C(c2ccc(Cl)cc2)C1 (single isomer, unassigned) [Example 2-240A] | – | 5 | IC50 (RS4;11 cells; Homo sapiens, RS4-11, 72 h): 1 nM
6 | CC1(C)CCC(CN2CCN(c3ccc(C(=O)NS(=O)(=O)c4cc5c(c([N+](=O)[O-])c4)N[C@H](C4CCC(O)CC4)CO5)c(Oc4cnc5[nH]ccc5c4)c3)CC2)=C(c2ccc(Cl)cc2)C1 (single isomer, unassigned) [Example 2-240B] | – | 1 | IC50 (RS4;11 cells): 1 nM
7 | CC1(C)CCC(CN2CCN(c3ccc(C(=O)NS(=O)(=O)c4cc5c(c([N+](=O)[O-])c4)N[C@@H](CC4CCC(O)CC4)CO5)c(Oc4cnc5[nH]ccc5c4)c3)CC2)=C(c2ccc(Cl)cc2)C1 (single isomer, unassigned) [Example 2-244A] | – | 7 | IC50 (RS4;11 cells; Homo sapiens, RS4-11, 72 h): 3 nM
8 | CC1(C)CCC(CN2CCN(c3ccc(C(=O)NS(=O)(=O)c4cc5c(c([N+](=O)[O-])c4)N[C@@H](CC4CCC(O)CC4)CO5)c(Oc4cnc5[nH]ccc5c4)c3)CC2)=C(c2ccc(Cl)cc2)C1 (single isomer, unassigned) [Example 2-244B] | – | 1 | IC50 (RS4;11 cells): 3 nM
9 | CC1(C)CCC(CN2CCN(c3ccc(C(=O)NS(=O)(=O)c4cc5c(c([N+](=O)[O-])c4)N[C@H](CN4CCOCC4)C5)c(Oc4cnc5[nH]ccc5c4)c3)CC2)=C(c2ccc(Cl)cc2)C1 [Example 1-1, (S)-2-((1H-pyrrolo[2,3-b]pyridin-5-yl)oxy)-4-(4-((4′-chloro-5,5-dimethyl-3,4,5,6-tetrahydro-[1,1′-biphenyl]-2-yl)methyl)piperazin-1-yl)-N-((2-(morpholinomethyl)-7-nitroindolin-5-yl)sulfonyl)benzamide] | 80 | – | IC50 (RS4;11 cells; Homo sapiens, RS4-11, 72 h): 48 nM
10 | CC1(C)CCC(CN2CCN(c3ccc(C(=O)NS(=O)(=O)c4cc5c(c([N+](=O)[O-])c4)N[C@@H](Cc4ccc(Cl)cc4)CO5)c(Oc4cnc5[nH]ccc5c4)c3)CC2)=C(c2ccc(Cl)cc2)C1 [Example 2-207, (S)-2-((1H-pyrrolo[2,3-b]pyridin-5-yl)oxy)-4-(4-((4′-chloro-5,5-dimethyl-3,4,5,6-tetra-hydro-[1,1′-phenyl]-2-yl)methyl)piperazin-1-yl)-N-((3-(4-chlorobenzyl)-5-nitro-3,4-dihydro-2H-benzo[b][1,4]oxazin-7-yl)sulfo-nyl)benzamide] | 402 | – | –
11 | CC1(C)CCC(CN2CCN(c3ccc(C(=O)NS(=O)(=O)c4cc5c(c([N+](=O)[O-])c4)N[C@H](c4ccc(Cl)cn4)CO5)c(Oc4cnc5[nH]ccc5c4)c3)CC2)=C(c2ccc(Cl)cc2)C1 [Example 2-217, (R)-2-((1H-pyrrolo[2,3-b]pyridin-5-yl)oxy)-4-(4-((4′-chloro-5,5-dimethyl-3,4,5,6-tetra-hydro-[1,1′-biphenyl]-2-yl)methyl)piperazin-1-yl)-N-((3-(5-chloropyridin-2-yl)-5-nitro-3,4-dihydro-2H-benzo[b][1,4]oxazin-7-yl)sulfonyl)benzamide] | 715 | – | –
12 | CC1(C)CCC(CN2CCN(c3ccc(C(=O)NS(=O)(=O)c4cc5c(c([N+](=O)[O-])c4)O[C@H](c4ccc(Cl)cn4)CN5)c(Oc4cnc5[nH]ccc5c4)c3)CC2)=C(c2ccc(Cl)cc2)C1 [Example 2-218, (S)-2-((1H-pyrrolo[2,3-b]pyridin-5-yl)oxy)-4-(4-((4′-chloro-5,5-dimethyl-3,4,5,6-tetra-hydro-[1,1′-biphenyl]-2-yl)methyl)piperazin-1-yl)-N-((2-(5-chloropyridin-2-yl)-8-nitro-3,4-dihdyro-2H-benzo[b][1,4]oxazin-6-yl)sulfonyl)benzamide] | 507 | – | –
13 | CC1(C)CCC(CN2CCN(c3ccc(C(=O)NS(=O)(=O)c4cc5c(c([N+](=O)[O-])c4)N[C@H](CC4CCC(C)(O)CC4)CO5)c(Oc4cnc5[nH]ccc5c4)c3)CC2)=C(c2ccc(Cl)cc2)C1 (stereo partly drawn) [Example 2-219, (R)-2-((1H-pyrrolo[2,3-b]pyridin-5-yl)oxy)-4-(4-((4′-chloro-5,5-dimethyl-3,4,5,6-tetra-hydro-[1,1′-biphenyl]-2-yl)methyl)piperazin-1-yl)-N-((3-((4-hydroxy-4-methylcyclo-hexyl)methyl)-5-nitro-3,4-dihydro-2H-benzo [b][1,4]oxazin-7-yl)sulfonyl)benzamide] | 662 | – | –
14 | CC1(C)CCC(CN2CCN(c3ccc(C(=O)NS(=O)(=O)c4cc5c(c([N+](=O)[O-])c4)N[C@@H](C4CCNCC4)CO5)c(Oc4cnc5[nH]ccc5c4)c3)CC2)=C(c2ccc(Cl)cc2)C1 [Example 2-228, (S)-2-((1H-pyrrolo[2,3-b]pyridin-5-yl)oxy)-4-(4-((4′-chloro-5,5-dimethyl-3,4,5,6-tetra-hydro-[1,1′-biphenyl]-2-yl)methyl)piperazin-1-yl)-N-((5-nitro-3-(piperidin-4-yl)-3,4-dihydro-2H-benzo[b][1,4]oxazin-7-yl)sulfonyl)benzamide] | 48 | – | –
15 | CC1(C)CCC(CN2CCN(c3ccc(C(=O)NS(=O)(=O)c4cc5c(c([N+](=O)[O-])c4)N[C@@H](C4CCC(O)CC4)CO5)c(Oc4cnc5[nH]ccc5c4)c3)CC2)=C(c2ccc(Cl)cc2)C1 (stereo partly drawn) [Example 2-245B, (S)-2-((1H-pyrrolo[2,3-b]pyridin-5-yl)oxy)-4-(4-((4′-chloro-5,5-dimethyl-3,4,5,6-tetra-hydro-[1,1′-biphenyl]-2-yl)methyl)piperazin-1-yl)-N-((3-(4-hydroxycyclohexyl)-5-nitro-3,4-dihydro-2H-benzo[b][1,4]oxazin-7-yl)sulfonyl)benzamide] | – | 1 | –
16 | CN1CCN(CC[C@@H]2CNc3cc(S(=O)(=O)NC(=O)c4ccc(N5CCN(CC6=C(c7ccc(Cl)cc7)CC(C)(C)CC6)CC5)cc4Oc4cnc5[nH]ccc5c4)cc([N+](=O)[O-])c3N2)CC1 [Example 4-5, (R)-2-((1H-pyrrolo[2,3-b]pyridin-5-yl)oxy)-4-(4-((4′-chloro-5,5-dimethyl-3,4,5,6-tetra-hydro-[1,1′-biphenyl]-2-yl)methyl)piperazin-1-yl)-N-((2-(2-(4-methylpiperazin-1-yl)ethyl)-8-nitro-1,2,3,4-tetrahydroquinoxalin-6-yl)sulfonyl)benzamide] | 232 | – | –
17 | CC1(C)CCC(CN2CCN(c3ccc(C(=O)NS(=O)(=O)c4cc5c(c([N+](=O)[O-])c4)N[C@@H](C4CC4)CO5)c(-n4ncc5nc6[nH]ccc6cc54)c3)CC2)=C(c2ccc(Cl)cc2)C1 [Example 6-2, (S)-4-(4-((4′-chloro-5,5-dimethyl-3,4,5,6-tetrahydro-[1,1′-biphenyl]-2-yl)methyl)piperazin-1-yl)-N-((3-cyclopropyl-5-nitro-3,4-dihydro-2H-benzo[b][1,4]oxazin-7-yl)sulfonyl)-2-(pyrazolo[4,3-b]pyrrolo[3,2-e]pyridin-1(5H)-yl)benzamide] | 264 | – | –
18 | CC1(C)CCC(CN2CCN(c3ccc(C(=O)NS(=O)(=O)c4cc5c(c([N+](=O)[O-])c4)N[C@@H](Cc4ccccn4)CO5)c(-n4ncc5nc6[nH]ccc6cc54)c3)CC2)=C(c2ccc(Cl)cc2)C1 [Example 6-3, (S)-4-(4-((4′-chloro-5,5-dimethyl-3,4,5,6-tetrahydro-[1,1′-biphenyl]-2-yl)methyl)piperazin-1-yl)-N-((5-nitro-3-(pyridin-2-ylmethyl)-3,4-dihydro-2H-benzo[b][1,4]oxazin-7-yl)sulfonyl)-2-(pyrazolo[4,3-b]pyrrolo[3,2-e]pyridin-1(5H)-yl)benzamide] | 185 | – | –
